Patent publication US10590078B2, “Sodium channel blockers” (Daewoong Pharmaceutical Co., Ltd., priority 2015, dated 2020)
Read-outs that look alike come from different tables or passages of the source.

Molecular target: human sodium ion channel 1.7 (hNav1.7) (Homo sapiens, UniProt Q15858)
Assay: Blocking effect against sodium ion channel Nav1.7, IonFlux16 auto patch clamp in hNav1.7 HEK293 cells
Type: cell-based
[1] = hNav1.7 HEK293 cells, inhibition of peak current after 50 seconds treatment, eight concentrations, read-out: IC50

Sequence of human sodium ion channel 1.7 (hNav1.7) (Q15858 whole entry): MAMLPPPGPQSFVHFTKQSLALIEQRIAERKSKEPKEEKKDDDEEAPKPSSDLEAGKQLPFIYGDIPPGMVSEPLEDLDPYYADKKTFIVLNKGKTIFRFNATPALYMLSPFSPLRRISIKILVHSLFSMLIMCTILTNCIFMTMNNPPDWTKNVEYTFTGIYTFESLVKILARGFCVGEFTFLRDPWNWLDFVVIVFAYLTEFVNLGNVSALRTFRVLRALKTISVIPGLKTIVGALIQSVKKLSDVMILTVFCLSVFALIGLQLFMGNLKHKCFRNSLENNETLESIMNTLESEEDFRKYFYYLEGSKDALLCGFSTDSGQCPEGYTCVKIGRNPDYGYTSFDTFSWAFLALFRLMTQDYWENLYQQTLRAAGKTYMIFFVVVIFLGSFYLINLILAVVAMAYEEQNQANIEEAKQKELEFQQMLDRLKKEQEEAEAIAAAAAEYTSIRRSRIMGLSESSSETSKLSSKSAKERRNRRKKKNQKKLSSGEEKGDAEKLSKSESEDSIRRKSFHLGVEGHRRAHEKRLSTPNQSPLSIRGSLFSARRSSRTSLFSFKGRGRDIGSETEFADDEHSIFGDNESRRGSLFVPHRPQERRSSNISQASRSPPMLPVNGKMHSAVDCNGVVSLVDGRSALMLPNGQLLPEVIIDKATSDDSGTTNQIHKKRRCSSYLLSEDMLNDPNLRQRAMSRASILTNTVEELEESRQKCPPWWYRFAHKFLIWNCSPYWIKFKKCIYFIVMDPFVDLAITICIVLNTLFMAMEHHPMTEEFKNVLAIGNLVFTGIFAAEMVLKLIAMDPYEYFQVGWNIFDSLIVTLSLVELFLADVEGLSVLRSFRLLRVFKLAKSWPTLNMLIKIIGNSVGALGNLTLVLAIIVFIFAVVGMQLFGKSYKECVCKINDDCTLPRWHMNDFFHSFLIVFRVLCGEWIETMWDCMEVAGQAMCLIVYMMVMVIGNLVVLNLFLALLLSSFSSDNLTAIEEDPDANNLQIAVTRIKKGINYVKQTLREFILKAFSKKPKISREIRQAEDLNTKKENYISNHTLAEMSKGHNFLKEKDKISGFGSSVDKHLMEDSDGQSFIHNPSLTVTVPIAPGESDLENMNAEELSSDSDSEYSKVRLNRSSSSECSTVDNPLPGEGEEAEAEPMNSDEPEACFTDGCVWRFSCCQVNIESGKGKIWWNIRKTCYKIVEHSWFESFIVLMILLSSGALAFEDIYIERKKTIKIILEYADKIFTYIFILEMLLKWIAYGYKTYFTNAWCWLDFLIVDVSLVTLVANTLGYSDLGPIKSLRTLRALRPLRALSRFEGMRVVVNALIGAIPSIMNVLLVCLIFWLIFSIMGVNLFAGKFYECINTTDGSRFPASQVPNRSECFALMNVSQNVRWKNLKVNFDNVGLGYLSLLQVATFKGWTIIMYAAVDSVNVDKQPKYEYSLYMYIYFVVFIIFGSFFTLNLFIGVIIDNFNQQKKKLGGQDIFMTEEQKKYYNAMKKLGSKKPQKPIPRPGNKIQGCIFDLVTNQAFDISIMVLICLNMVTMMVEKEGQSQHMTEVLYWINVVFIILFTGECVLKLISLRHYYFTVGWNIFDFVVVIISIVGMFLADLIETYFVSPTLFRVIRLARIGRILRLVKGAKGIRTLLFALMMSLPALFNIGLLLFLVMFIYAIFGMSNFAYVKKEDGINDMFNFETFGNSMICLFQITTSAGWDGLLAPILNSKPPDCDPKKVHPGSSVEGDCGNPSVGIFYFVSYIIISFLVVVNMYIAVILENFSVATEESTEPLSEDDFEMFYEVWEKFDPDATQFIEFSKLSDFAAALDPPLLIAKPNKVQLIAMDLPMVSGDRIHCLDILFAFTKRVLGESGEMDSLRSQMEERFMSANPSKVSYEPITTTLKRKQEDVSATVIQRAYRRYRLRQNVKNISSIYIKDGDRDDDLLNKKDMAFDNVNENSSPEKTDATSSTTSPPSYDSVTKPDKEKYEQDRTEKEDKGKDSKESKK

| IC50 [1] [nM] | IC50 [nM] | Compound |
| --- | --- | --- |
| 50 |  | CS(=O)(=O)NC(=O)c1cc(Cl)c(-n2cc(-c3cccc(Cl)c3)c3cc(F)cnc32)cc1F [Example 208, 5-chloro-4-(3-(3-chlorophenyl)-5-fluoro-1H-pyrrolo[2,3-b]pyridin-1-yl)-2-fluoro-N-(methylsulfonyl)benzamide] |
| 40 |  | CS(=O)(=O)NC(=O)c1cc(Cl)c(-n2cc(-c3ccc(Cl)cc3Cl)c3cc(F)cnc32)cc1F [Example 209, 5-chloro-4-(3-(2,4-dichlorophenyl)-5-fluoro-1H-pyrrolo[2,3-b]pyridin-1-yl)-2-fluoro-N-(methylsulfonyl)benzamide] |
| 60 |  | CS(=O)(=O)NC(=O)c1cc(Cl)c(-n2cc(-c3ccc(Cl)c(F)c3)c3cc(F)cnc32)cc1F [Example 210, 5-chloro-4-(3-(4-chloro-3-fluorophenyl)-5-fluoro-1H-pyrrolo[2,3-b]pyridin-1-yl)-2-fluoro-N-(methylsulfonyl)benzamide] |
|  | 40 | CS(=O)(=O)NC(=O)c1cc(Cl)c(-n2cc(-c3cccc(Cl)c3F)c3cc(F)cnc32)cc1F [Example 211, 5-chloro-4-(3-(3-chloro-2-fluorophenyl)-5-fluoro-1H-pyrrolo[2,3-b]pyridin-1-yl)-2-fluoro-N-(methylsulfonyl)benzamide] |
| 180 |  | Cc1cc(F)ccc1-c1cn(-c2cc(F)c(C(=O)NS(C)(=O)=O)cc2Cl)c2ncc(F)cc12 [Example 212, 5-chloro-2-fluoro-4-(5-fluoro-3-(4-fluoro-2-methylphenyl)-1H-pyrrolo[2,3-b]pyridin-1-yl)-N-(methylsulfonyl)benzamide] |
| 720 |  | CS(=O)(=O)NC(=O)c1cc(Cl)c(-n2cc(-c3ccccc3F)c3cccnc32)cc1F [Example 213, 5-chloro-2-fluoro-4-(3-(2-fluorophenyl)-1H-pyrrolo[2,3-b]pyridin-1-yl)-N-(methylsulfonyl)benzamide] |
| 340 |  | CS(=O)(=O)NC(=O)c1cc(Cl)c(-n2cc(-c3cccc(F)c3)c3cccnc32)cc1F [Example 214, 5-chloro-2-fluoro-4-(3-(3-fluorophenyl)-1H-pyrrolo[2,3-b]pyridin-1-yl)-N-(methylsulfonyl)benzamide] |
| 210 |  | Cc1cccc(-c2cn(-c3cc(F)c(C(=O)NS(C)(=O)=O)cc3Cl)c3ncccc23)c1 [Example 215, 5-chloro-2-fluoro-N-(methylsulfonyl)-4-(3-(m-tolyl)-1H-pyrrolo[2,3-b]pyridin-1-yl)benzamide] |
| 370 |  | CS(=O)(=O)NC(=O)c1cc(Cl)c(-n2cc(-c3ccccc3C(F)(F)F)c3cccnc32)cc1F [Example 216, 5-chloro-2-fluoro-N-(methylsulfonyl)-4-(3-(2-(trifluoromethyl)phenyl)-1H-pyrrolo[2,3-b]pyridin-1-yl)benzamide] |
| 530 |  | CS(=O)(=O)NC(=O)c1cc(Cl)c(-n2cc(-c3cccc(C(F)(F)F)c3)c3cccnc32)cc1F [Example 217, 5-chloro-2-fluoro-N-(methylsulfonyl)-4-(3-(3-(trifluoromethyl)phenyl)-1H-pyrrolo[2,3-b]pyridin-1-yl)benzamide] |
| 290 |  | CS(=O)(=O)NC(=O)c1cc(Cl)c(-n2cc(-c3ccc(C(F)(F)F)cc3)c3cccnc32)cc1F [Example 218, 5-chloro-2-fluoro-N-(methylsulfonyl)-4-(3-(4-(trifluoromethyl)phenyl)-1H-pyrrolo[2,3-b]pyridin-1-yl)benzamide] |
| 300 |  | CS(=O)(=O)NC(=O)c1cc(Cl)c(-n2cc(-c3cc(Cl)ccc3F)c3cccnc32)cc1F [Example 219, 5-chloro-4-(3-(5-chloro-2-fluorophenyl)-1H-pyrrolo[2,3-b]pyridin-1-yl)-2-fluoro-N-(methylsulfonyl)benzamide] |
| 540 |  | CS(=O)(=O)NC(=O)c1cc(Cl)c(-n2cc(-c3cc(F)cc(Cl)c3)c3cccnc32)cc1F [Example 220, 5-chloro-4-(3-(3-chloro-5-fluorophenyl)-1H-pyrrolo[2,3-b]pyridin-1-yl)-2-fluoro-N-(methylsulfonyl)benzamide] |
| 970 |  | CS(=O)(=O)NC(=O)c1cc(Cl)c(-n2cc(-c3cccc(Cl)c3)c3cccnc32)cc1F [Example 221, 5-chloro-4-(3-(3-chlorophenyl)-1H-pyrrolo[2,3-b]pyridin-1-yl)-2-fluoro-N-(methylsulfonyl)benzamide] |
| 410 |  | CS(=O)(=O)NC(=O)c1cc(Cl)c(-n2cc(-c3cccc(Cl)c3F)c3cccnc32)cc1F [Example 222, 5-chloro-4-(3-(3-chloro-2-fluorophenyl)-1H-pyrrolo[2,3-b]pyridin-1-yl)-2-fluoro-N-(methylsulfonyl)benzamide] |
| 230 |  | CS(=O)(=O)NC(=O)c1cc(Cl)c(-n2cc(-c3ccc(Cl)c(F)c3)c3cccnc32)cc1F [Example 223, 5-chloro-4-(3-(4-chloro-3-fluorophenyl)-1H-pyrrolo[2,3-b]pyridin-1-yl)-2-fluoro-N-(methylsulfonyl)benzamide] |
| 280 |  | CS(=O)(=O)NC(=O)c1cc(Cl)c(-n2cc(-c3ccc(Cl)cc3)c3cccnc32)cc1F [Example 224, 5-chloro-4-(3-(4-chlorophenyl)-1H-pyrrolo[2,3-b]pyridin-1-yl)-2-fluoro-N-(methylsulfonyl)benzamide] |
| 460 |  | CS(=O)(=O)NC(=O)c1cc(Cl)c(-n2cc(-c3ccccc3Cl)c3cccnc32)cc1F [Example 225, 5-chloro-4-(3-(2-chlorophenyl)-1H-pyrrolo[2,3-b]pyridin-1-yl)-2-fluoro-N-(methylsulfonyl)benzamide] |
| 400 |  | CS(=O)(=O)NC(=O)c1cc(Cl)c(-n2cc(-c3ccc(F)cc3)c3cccnc32)cc1F [Example 226, 5-chloro-2-fluoro-4-(3-(4-fluorophenyl)-1H-pyrrolo[2,3-b]pyridin-1-yl)-N-(methylsulfonyl)benzamide] |
| 180 |  | CS(=O)(=O)NC(=O)c1cc(Cl)c(-n2cc(-c3ccc(F)cc3F)c3cccnc32)cc1F [Example 229, 5-chloro-4-(3-(2,4-difluorophenyl)-1H-pyrrolo[2,3-b]pyridin-1-yl)-2-fluoro-N-(methylsulfonyl)benzamide] |
| 144 |  | CS(=O)(=O)NC(=O)c1cc(Cl)c(-n2nc(Cl)c3cc(-c4ccccc4)ccc32)cc1F [Example 230, 5-chloro-4-(3-chloro-5-phenyl-1H-indazol-1-yl)-2-fluoro-N-(methylsulfonyl)benzamide] |
| 3000 to 10000 |  | CS(=O)(=O)NC(=O)c1cc(Cl)c(-n2nc(Cl)c3cc(-c4cccnc4)ccc32)cc1F [Example 231, 5-chloro-4-(3-chloro-5-(pyridin-3-yl)-1H-indazol-1-yl)-2-fluoro-N-(methylsulfonyl)benzamide] |
| 1000 to 3000 |  | CS(=O)(=O)NC(=O)c1cc(Cl)c(-n2nc(Cl)c3cc(-c4ccncc4)ccc32)cc1F [Example 232, 5-chloro-4-(3-chloro-5-(pyridin-4-yl)-1H-indazol-1-yl)-2-fluoro-N-(methylsulfonyl)benzamide] |
| 68 |  | Cc1cccc(-c2ccc3c(c2)c(Cl)nn3-c2cc(F)c(C(=O)NS(C)(=O)=O)cc2Cl)c1 [Example 233, 5-chloro-4-(3-chloro-5-(m-tolyl)-1H-indazol-1-yl)-2-fluoro-N-(methylsulfonyl)benzamide] |
| 111 |  | CS(=O)(=O)NC(=O)c1cc(Cl)c(-n2nc(Cl)c3cc(-c4ccccc4F)ccc32)cc1F [Example 234, 5-chloro-4-(3-chloro-5-(2-fluorophenyl)-1H-indazol-1-yl)-2-fluoro-N-(methylsulfonyl)benzamide] |
